Laboratory results: patent publication US10555977B2, “Probiotic bacteria for the topical treatment of skin disorders” (DUPONT NUTRITION BIOSCIENCES APS, priority 2011, dated 2020)

Tests used:
claudin-4 (CLDN4) = test: Real-time quantitative PCR of claudin-4 expression in differentiated keratinocytes; type: cell-based, human; settings: betaine 10-500 μM, 24 h
Protocol: (§1) Adult normal human primary keratinocytes (Invitrogen, Carlsbad, Calif., USA) were maintained in EpiLife® medium with 60 μM calcium (Invitrogen) supplemented with Human Keratinocyte Growth Supplement (HKGS) (Invitrogen) (basal medium) at 5% CO2 atmosphere. To differentiate the keratinocytes, the P5-P7 cells were plated on ThinCert™ cell culture inserts (Greiner Bio-one, Frickenhausen, Germany) at density of 10^5cells/cm^2. After overnight incubation at 5% CO2 atmosphere the basal medium was aspirated and changed to differentiation medium (DM) consisting of EpiLife® medium with 1.45 mM CaCl2 supplemented with human keratinocyte growth supplement and incubated for 4 days at 5% CO2 atmosphere. DM was changed both at both the apical and basolateral side every day. Test substances were given at fourth day after starting the differentiation.
(§2) Betaine (Danisco) were dissolved in DM, and applied to apical side of differentiated keratinocytes at amounts of 0, 10, 50, 100, 250 and 500 μM. The cells were incubated for 1, 12, and 24 hours at which points TEER was measured as described below. […]
The differentiated keratinocytes were treated with soluble metabolites produced by probiotics, probiotic whole bacterial cells, and bacterial cell lysates from the apical side for 1 h, 8 h and 24 h at which the TEER was measured. […]

[1] = tested on: Adult normal human primary keratinocytes (tight junction integrity); test: Transepithelial electrical resistance (TEER) of differentiated keratinocyte monolayers; type: cell-based; settings: for % Change in TEER (additional increase): 24 h
Protocol: as §1, §2
The integrity of the monolayer was verified by measuring TEER before and after each time point using Millicell-ERS system (Millipore, Billerica, Mass., US) (26). The TEER obtained from the monolayer and the insert was subtracted with background TEER obtained from the insert to yield the monolayer resistance and multiplied with the area of the insert to obtain the result as ohm×cm^2. For the experiments with betaine and probiotics the results are expressed as a percentage change in TEER (% Change in TEER) which reflects the change in the resistance in the given time point compared to a control time point, which was the same cell monolayer before applying the test substances.

occludin (OCLN) = test: Real-time quantitative PCR of occludin expression in differentiated keratinocytes; type: cell-based, human; settings: 24 h, p<0.05
Protocol: as §1, with “Test substances were given at fourth day after starting the differentiation.” left out
as §2
(§3) Real-time quantitative PCR of claudin-4 (CLDN4), occludin (OCLN), zonula occludens-1 (ZO-1) was done with TaqMan gene expression assays (Applied biosystems, Foster City, Calif., USA) designed for each specific gene in an amplification reaction of 20 μl according to manufacturer's instructions with 7500 Fast Real-time PCR System (Applied Biosystems). […]

[2] = tested on: zonula occludens-1 (ZO-1); test: Real-time quantitative PCR of zonula occludens-1 expression in differentiated keratinocytes; type: cell-based, human; settings: betaine 10-500 μM, 24 h
Protocol: as §1, with “Test substances were given at fourth day after starting the differentiation.” left out
as §2, §3

C[N+](C)(C)CC(=O)O [betaine, Betaine]
Expression of CLDN4 (claudin-4 (CLDN4)): remained similar to the basal levels
% Change in TEER ([1]; 50 μM and higher concentrations of betaine, after 12 h, p<0.05 to p<0.001): remained increased
% Change in TEER ([1]; 50 μM betaine, after 1 hour, p<0.05): increased
% Change in TEER (additional increase) ([1]; 100 μM betaine, p<0.05, mean±SE): 41.8±2.8%
% Change in TEER (additional increase) ([1]; 500 μM betaine, p<0.01, mean±SE): 47.8±4.2%
% Change in TEER ([1]; lowest amount of betaine (10 μM), apical side): remained at the basal level
Expression of OCLN (occludin (OCLN); 100 μM betaine): decreased
Expression of OCLN (occludin (OCLN); 250 μM betaine): decreased
Expression of ZO-1 [2]: remained similar to the basal levels
